From patent US7005424B2, “Nucleic acid encoding an E1A gene product sensitizes HER-2/neu overexpressing cancer cells to chemotherapy” (priority 1996, dated 2006)
Starred links: 1 amine or outer side, 2 acyl side, 3 side chain; linkers in the order of their positions; H or OH if unused. Positions of bridges follow the written chain, without caps; N, C: chain ends. Non-standard residues stand in square brackets, D forms with d. Residues, ends and D or L forms follow the SMILES beside them. Chains are numbered I, II in the order given. Actinocin(9to1) = Cc1c2oc3c(C)ccc(C(=O)[*:1])c3nc-2c(C(=O)[*:2])c(N)c1=O; NMeV = CN[C@H](C(=O)O)C(C)C; Sar = CNCC(=O)O

Columns and labels:
[1] = in vivo; cited from earlier work
[2] = system: B.E1A1.Hy; experiment: MTT assay, taxol on rat fibroblasts with various neu and E1A expression; type: cell-based; conditions: taxol 0.1–10 μM; compared with B104-1-1, B.neo, B.E1A1.D1
Description: FIG. 30B. Effect of taxol (0.01–100 μM) on the cell growth of rat fibroblast with various HER-2/neu and E1A expression. […] Bars, SD.
In order to examine the effects of taxol on cell growth rat fibroblasts with various neu and E1A expression were grown in varying concentrations of taxol 0.01–100 μM. The cell lysates were subsequently run through 8% SDS-PAge and blotted with anti-p185 and anti-E1A antibodies (FIG. 30A). The effects on cell growth were measured using the MTT assay as described earlier.

[3] = system: MDA-MB-435 cells; experiment: MTT assay, Ad.E1A and Taxol; type: cell-based; conditions: low neu expressing cells
Description: The percentage of cell growth was calculated by defining the absorption of cells not treated with taxol or E1A as 100%. Bars, SD.
FIG. 34. […] The percentage of cell growth was calculated by defining the absorption of cells not treated with taxol or E1A as 100%. Bars, SD.
Taxol was given from 0.1 μM to 100 μM (FIGS. 33B and 33D).

Compound | dose excreted or detected intact in the urine [1] | inhibition of cell growth (MTT) [2] | sensitivity to taxol alone [3]
Cc1c2oc3c(C)ccc(C(=O)N[C@@H]4C(=O)N[C@H](C(C)C)C(=O)N5CCC[C@H]5C(=O)N(C)CC(=O)N(C)[C@@H](C(C)C)C(=O)O[C@@H]4C)c3nc-2c(C(=O)N[C@@H]2C(=O)N[C@H](C(C)C)C(=O)N3CCC[C@H]3C(=O)N(C)CC(=O)N(C)[C@@H](C(C)C)C(=O)O[C@@H]2C)c(N)c1=O [Actinomycin D] (I: T[dV]P[Sar][NMeV] / II: T[dV]P[Sar][NMeV]; ester I:1-I:C, II:1-II:C; linker I:N-II:N via Actinocin(9to1)) | 10% | – | –
CC(=O)O[C@H]1C(=O)[C@@]2(C)[C@H]([C@H](OC(=O)c3ccccc3)[C@]3(O)C[C@H](OC(=O)[C@H](O)[C@@H](NC(=O)c4ccccc4)c4ccccc4)C(C)=C1C3(C)C)[C@]1(OC(C)=O)CO[C@@H]1C[C@@H]2O [Taxol] | – | highest inhibition of cell growth | more sensitive to taxol alone
CC[C@]1(O)C[C@@H]2CN(CCc3c([nH]c4ccccc34)[C@@](C(=O)OC)(c3cc4c(cc3OC)N(C)[C@H]3[C@@](O)(C(=O)OC)[C@H](OC(C)=O)[C@]5(CC)C=CCN6CC[C@]43[C@@H]65)C2)C1 [Vinblastine] | Approximately 15% | – | –
